Test results reported in patent US11098061B2 (Celgene CAR LLC, priority 2013, dated 2021).

Key:
[1] = target: p38a activated, mitogen-activated protein kinase-activated protein kinase 2 (MAPKAP-K2 or MK-2) enzyme (Homo sapiens (Human), UniProt P49137); test: MK2 Omnia continuous-read kinase assay for compound potency; type: biochemical; conditions: [MK-2]=0.4 nM, [ATP]=1.0 mM, [ST3-Sox]=10 μM
Outline: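 Continuous Omnia fluorescence read (λex360/λem485) every 71 s after starting with 0.4 nM MK-2, with 1.0 mM ATP (appKM 8-10 μM) and 10 μM ST3-Sox substrate.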

MK2 [2] = target: T1, MK2 (Homo sapiens (Human), UniProt P49137); test: MK2 cellular assay (Hsp27 phosphorylation in Thp-1 cells); type: cell-based; conditions: differentiated Thp-1 cells, compound 1 hour, 50 ng/ml LPS 15 minutes, phosphorylation of Hsp27; read-out: MK2EC50
T1 sequence (P49137 whole entry): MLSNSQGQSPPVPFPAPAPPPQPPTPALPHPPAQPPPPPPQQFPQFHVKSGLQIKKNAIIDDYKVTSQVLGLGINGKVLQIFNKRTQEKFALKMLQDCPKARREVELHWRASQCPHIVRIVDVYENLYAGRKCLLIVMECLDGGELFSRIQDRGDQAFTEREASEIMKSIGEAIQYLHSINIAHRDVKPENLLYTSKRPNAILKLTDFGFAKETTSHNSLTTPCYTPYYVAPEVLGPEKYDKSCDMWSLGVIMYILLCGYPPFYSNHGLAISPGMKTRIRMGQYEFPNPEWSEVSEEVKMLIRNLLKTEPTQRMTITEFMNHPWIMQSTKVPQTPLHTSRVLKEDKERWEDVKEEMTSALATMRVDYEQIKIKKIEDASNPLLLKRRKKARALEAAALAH
Protocol: Compounds were assayed in Thp-1 human acute monocytic leukemia cells to measure inhibition of MK2 activity. Thp-1 were grown in suspension in T225 flasks. Two days prior to assay, Thp-1 cells were spun down, counted and plated at 1×10^6 cells per well of a 12 well plate in complete media containing 10 ng/ml PMA (phorbol myristate acetate) to differentiate the cells. On day of assay, cells were washed with complete media, and compound was added to differentiated Thp-1 cells for 1 hour. Cells were washed again, and complete media containing 50 ng/ml LPS (lipopolysaccharide) was added. After 15 minutes, cells were washed once with PBS and lysed on ice with BioRad Bioplex lysis buffer. 20 μg total protein from lysates were loaded on gel and blots were probed for phosphorylation of the MK2 substrate Hsp27. Dose response inhibition of MK2 signaling in differentiated Thp-1 cells was used to determine the EC50 for compounds reported in Table A in the column entitled “MK2 EC50.”

MK2 [3] = target: T1, MK2; test: MK2 modification assessment by whole protein mass spectrometry; type: binding; conditions: intact MK2, 60 min, 10-fold excess of compound to protein
Outline: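 MK2 treated with compound is analysed intact by MALDI-TOF after C4 cleanup in sinapinic acid matrix. Percent modification is the centroid mass shift against control MK2 divided by compound mass.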

Chain of p38a activated, mitogen-activated protein kinase-activated protein kinase 2 (MAPKAP-K2 or MK-2) enzyme (P49137 whole entry): as above

| Compound | IC50 [1] [µM] | EC50 (MK2 [2]) [µM] | MK2 Mass Mod (MK2 [3]) |
| --- | --- | --- | --- |
| C=CC(=O)Nc1cc(-c2cc3c(cn2)CCc2c-3[nH]c3c2C(=O)NC2(CC2)C3)cnc1OCCOC [II-8, N-(2-(2-methoxyethoxy)-5-(7′-oxo-5′,6′,7′,8′8′,1′,11′-hexahydrospiro[cyclopropane-1,9′-pyrido[3′,4′:4,5]pyrrolo[2,3-f]isoquinolin]-2′-yl)pyridin-3-yl)acrylamide] | < 0.1 | < 0.1 | E (mass modification of ≥70%) |
| C=CC(=O)Nc1cc(-c2cc3c(ccc4c5c(n(C)c43)CCC5=O)cn2)ccc1N1CCN(C)CC1 [II-e-15, N-(5-(10-methyl-7-oxo-7,8,9,10-tetrahydrocyclopenta[4,5]pyrrolo[2,3-f]isoquinolin-2-yl)-2-(4-methylpiperazin-1-yl)phenyl)acrylamide] | < 0.1 | 0.101 to 0.5 | E (mass modification of ≥70%) |
| C=CC(=O)Nc1cc(-c2cc(-c3cc4c([nH]3)C3(CCCNC3)CNC4=O)ccn2)ccc1F (stereo not drawn) [Compound I-8] | < 0.1 | > 1 | E (mass modification of ≥70%) |
| C=CC(=O)Nc1cc(-c2cc3c(ccc4c5c([nH]c43)CCC5=O)cn2)ccc1N1CCN(C)CC1 [II-e-4, N-(2-(4-methylpiperazin-1-yl)-5-(7-oxo-7,8,9,10-tetrahydrocyclopenta[4,5]pyrrolo[2,3-f]isoquinolin-2-yl)phenyl)acrylamide] | < 0.1 | < 0.1 | E (mass modification of ≥70%) |
| C=CC(=O)Nc1cc(-c2cc3c(cn2)CCc2c-3[nH]c3c2C(=O)NCC3)ccc1F [II-3, N-(2-fluoro-5-(7-oxo-6,7,8,9,10,11-hexahydro-5H-pyrido[3′,4′:4,5]pyrrolo[2,3-f]isoquinolin-2-yl)phenyl)acrylamide] | < 0.1 | < 0.1 | F (mass modification of 31-69%) |
| C=CC(=O)Nc1ccccc1C(=O)Nc1cc(-c2cc3c([nH]2)C2(CCCNC2)CNC3=O)ccn1 (racemic) [Compound I-4, 2-acrylamido-N-(4-(4′-oxo-1′,4′,5′,6′-tetrahydrospiro[piperidine-3,7′-pyrrolo[3,2-c]pyridin]-2′-yl)pyridin-2-yl)benzamide] | < 0.1 | > 1 | E (mass modification of ≥70%) |
| C=CC(=O)Nc1cc(-c2cc3c(cn2)CCc2c-3[nH]c3c2C(=O)NCC3)ccc1OCCOC [II-16, N-(2-(2-methoxyethoxy)-5-(7-oxo-6,7,8,9,10,11-hexahydro-5H-pyrido[3′,4′:4,5]pyrrolo[2,3-f]isoquinolin-2-yl)phenyl)acrylamide] | < 0.1 | < 0.1 | E (mass modification of ≥70%) |
| C=CC(=O)Nc1cc(-c2cc3c(cn2)CCc2c-3[nH]c3c2C(=O)NCC3)ccc1N1CCN(C)CC1 [II-1, N-(2-(4-methylpiperazin-1-yl)-5-(7-oxo-6,7,8,9,10,11-hexahydro-5H-pyrido[3′,4′:4,5]pyrrolo[2,3-f]isoquinolin-2-yl)phenyl)acrylamide] | < 0.1 | < 0.1 | E (mass modification of ≥70%) |
| C=CC(=O)Nc1cc(-c2cc3c(ccc4c5c(n(C)c43)CCC5=O)cn2)cnc1OC [II-e-21, N-(2-methoxy-5-(10-methyl-7-oxo-7,8,9,10-tetrahydrocyclopenta[4,5]pyrrolo[2,3-f]isoquinolin-2-yl)pyridin-3-yl)acrylamide] | 0.501 to 0.999 | > 1 | E (mass modification of ≥70%) |
| C=CC(=O)N1CCOc2ccc(-c3nccc(-c4cc5n(c4)CCNC5=O)n3)cc21 [V-c-3, 7-(2-(4-acryloyl-3,4-dihydro-2H-benzo[b][1,4]oxazin-6-yl)pyrimidin-4-yl)-3,4-dihydropyrrolo[1,2-a]pyrazin-1(2H)-one] | < 0.1 | > 1 | E (mass modification of ≥70%) |
| C=CC(=O)Nc1cc(-c2cc3c(cn2)CCc2c-3[nH]c3c2C(=O)NC2(CC2)C3)cnc1OC [II-5, N-(2-methoxy-5-(7′-oxo-5′,6′,7′,8′,10′,11′-hexahydrospiro[cyclopropane-1,9′-pyrido[3′,4′:4,5]pyrrolo[2,3-f]isoquinolin]-2′-yl)pyridin-3-yl)acrylamide] | < 0.1 | < 0.1 | E (mass modification of ≥70%) |
| C=CC(=O)Nc1cc(-c2ncc3c(n2)-c2[nH]c4c(c2CC3)C(=O)NCC4)cnc1OCCOC [II-13, N-(2-(2-methoxyethoxy)-5-(7-oxo-6,7,8,9,10,11-hexahydro-5H-pyrido[3′,4′:4,5]pyrrolo[3,2-h]quinazolin-2-yl)pyridin-3-yl)acrylamide] | < 0.1 | 0.101 to 0.5 | E (mass modification of ≥70%) |
| C=CC(=O)Nc1cc(-c2ncc3c(n2)-c2[nH]c4c(c2CC3)C(=O)NCC4)ccc1OCCOC [II-15, N-(2-(2-methoxyethoxy)-5-(7-oxo-6,7,8,9,10,11-hexahydro-5H-pyrido[3′,4′:4,5]pyrrolo[3,2-h]quinazolin-2-yl)phenyl)acrylamide] | < 0.1 | < 0.1 | E (mass modification of ≥70%) |

The next lines start with the values.

| IC50 [1] [µM] | EC50 (MK2 [2]) [µM] | MK2 Mass Mod (MK2 [3]) | Compound |
| --- | --- | --- | --- |
| < 0.1 | 0.101 to 0.5 | E (mass modification of ≥70%) | C=CC(=O)Nc1cc(-c2ccc3c(ccc4sc5c(c43)NC[C@@H](C)NC5=O)n2)ccc1C1CCN(C)CC1 [III-58, (R)—N-(5-(10-methyl-8-oxo-9,10,11,12-tetrahydro-8H-[1,4]diazepino[5′,6′:4,5]thieno[3,2-f]quinolin-3-yl)-2-(1-methylpiperidin-4-yl)phenyl)acrylamide] |
| < 0.1 | 0.501 to 0.999 | F (mass modification of 31-69%) | C=CC(=O)Nc1cccc(NC(=O)c2ccc3sc4c(c3c2)NC[C@@H](C)NC4=O)c1 [III-12, (R)—N-(3-acrylamidophenyl)-3-methyl-5-oxo-2,3,4,5-tetrahydro-1H-benzo[4,5]thieno[3,2-e][1,4]diazepine-9-carboxamide] |
| < 0.1 | < 0.1 | E (mass modification of ≥70%) | C=CC(=O)Nc1cc(NC(=O)c2ccc3sc4c(c3c2)NC[C@@H](C)NC4=O)ccc1F [III-6, (R)—N-(3-acrylamido-4-fluorophenyl)-3-methyl-5-oxo-2,3,4,5-tetrahydro-1H-benzo[4,5]thieno[3,2-e][1,4]diazepine-9-carboxamide] |
| < 0.1 | < 0.1 | F (mass modification of 31-69%) | C=CC(=O)Nc1cc(-c2ccc3c(ccc4sc5c(c43)NC[C@@H](C)NC5=O)n2)ccc1F [III-13, (R)—N-(2-fluoro-5-(10-methyl-8-oxo-9,10,11,12-tetrahydro-8H-[1,4]diazepino[5′,6′:4,5]thieno[3,2-f]quinolin-3-yl)phenyl)acrylamide] |
| < 0.1 | < 0.1 | E (mass modification of ≥70%) | C=CC(=O)Nc1cc(NC(=O)c2ccc3sc4c(c3c2)NC[C@@H](C)NC4=O)ccc1N1CCCC1 [III-3, (R)—N-(3-acrylamido-4-(pyrrolidin-1-yl)phenyl)-3-methyl-5-oxo-2,3,4,5-tetrahydro-1H-benzo[4,5]thieno[3,2-e][1,4]diazepine-9-carboxamide] |
| < 0.1 | > 1 | E (mass modification of ≥70%) | C=CC(=O)Nc1cc(NC(=O)c2ccc3sc4c(c3c2)NC[C@@H](C)NC4=O)ccc1OCCOC [III-7, (R)—N-(3-acrylamido-4-(2-methoxyethoxy)phenyl)-3-methyl-5-oxo-2,3,4,5-tetrahydro-1H-benzo[4,5]thieno[3,2-e][1,4]diazepine-9-carboxamide] |
| < 0.1 | < 0.1 | E (mass modification of ≥70%) | C=CC(=O)N1CCCC(NC(=O)c2ccc3sc4c(c3c2)NC[C@@H](C)NC4=O)C1 (stereo partly drawn) [III-51, (3R)—N-(1-acryloylpiperidin-3-yl)-3-methyl-5-oxo-2,3,4,5-tetrahydro-1H-benzo[4,5]thieno[3,2-e][1,4]diazepine-9-carboxamide] |
| < 0.1 | < 0.1 | E (mass modification of ≥70%) | C=CC(=O)N1CCOc2ccc(NC(=O)c3ccc4sc5c(c4c3)NC[C@@H](C)NC5=O)cc21 [III-11, (R)—N-(4-acryloyl-3,4-dihydro-2H-benzo[b][1,4]oxazin-6-yl)-3-methyl-5-oxo-2,3,4,5-tetrahydro-1H-benzo[4,5]thieno[3,2-e][1,4]diazepine-9-carboxamide] |
| < 0.1 | 0.101 to 0.5 | E (mass modification of ≥70%) | C=CC(=O)Nc1cc(-c2ccc3c(ccc4sc5c(c43)NC[C@@H](C)NC5=O)n2)ccc1Cl [III-54, (R)—N-(2-chloro-5-(10-methyl-8-oxo-9,10,11,12-tetrahydro-8H-[1,4]diazepino[5′,6′:4,5]thieno[3,2-f]quinolin-3-yl)phenyl)acrylamide] |
